Key:
[1] = system: OVA-induced allergic airway inflammation; test: Inflammatory cell infiltrate in lung tissue (HE sections, CAST), OVA model, i.p. dapansutrile; type: in vivo, C57BL/6j mice; settings: 60 mg/kg i.p.; treated vs asthmatic mice; p<0.01
Experimental: (§1) C57BL/6j mice were sensitized to OVA (ovalbumin) by three intraperitoneal (i.p.) injections of 10 μg OVA adsorbed to 150 mg aluminum hydroxide on days 1, 14, and 21. This sensitization results in an adoptive immune response against OVA with OVA-specific TH2 cells and the production of OVA-specific antibodies of the subclasses IgE and […]. To induce acute allergic airway inflammation, mice were exposed three times to an OVA aerosol (1% w/v in PBS) on days 26, 27, and 28. Healthy control animals (healthy group) were sham sensitized to PBS and subsequently challenged with PBS aerosol. […] The following readouts were measured according to Lunding, 2015b. • General infiltration of inflammatory cells into the broncheoalveolar lumen • Determination of the specific infiltration of eosinophils, neutrophils and lymphocytes by histologic differentiation of the bronchoalveolar lavage (BAL) cells. • Goblet cell hyperplasia by CAST system (Computer Assisted Stereological Toolbox), including making microscopic pictures of the airways. • Airway resistance in response to methacholine to determine the airway hyperresponsiveness. Specifically, inflammatory cell subpopulations (eosinophils, macrophages, neutrophils, lymphocytes) infiltrating the bronchoalveolar lumen were quantified using cyto-spinned and quick-diff-stained cells from bronchoalveolar lavage fluids (BALF). […]

[2] = system: OVA-induced allergic airway inflammation; test: Goblet cells covering airway mucosa, OVA model, oral dapansutrile in food; type: in vivo, mice
Experimental: The experimental protocols of the mouse model were the same as those described in Example 1, except dapansutrile was administered orally by food. The already-sensitized mice were fed ad libidum with food pellets containing 7.5 g/kg dapansutrile starting on day 22 for one week; the first aerosol challenge was on day 26. Mice typically consume about 4 g of food per day, resulting in an approximate daily dose of 0 mg/kg/day for control groups and 1,000 mg/kg/day for the treatment groups. […] OVA-sensitized, OVA-challenged asthmatic controls (asthmatic) were fed with control food pellets without dapansutrile. […] (data not shown).

[3] = system: OVA-induced allergic airway inflammation; test: Inflammatory cell infiltrate in lung tissue, OVA model, oral dapansutrile in food; type: in vivo; settings: 7.5 g/kg in food, treated vs asthmatic mice, p<0.05
Experimental: The experimental protocols of the mouse model were the same as those described in Example 1, except dapansutrile was administered orally by food. The already-sensitized mice were fed ad libidum with food pellets containing 7.5 g/kg dapansutrile starting on day 22 for one week; the first aerosol challenge was on day 26. Mice typically consume about 4 g of food per day, resulting in an approximate daily dose of 0 mg/kg/day for control groups and 1,000 mg/kg/day for the treatment groups. […] OVA-sensitized, OVA-challenged asthmatic controls (asthmatic) were fed with control food pellets without dapansutrile. […] The label on the y-axis reads “volume of inflammatory cell infiltrate per basal membrane area (μm^3/μm^2)”. The inflammatory cells were counted within a specific distance around the airways using a microscope with the computer assisted stereological toolbox (CAST) system. These counts were set in ratio to the basal membrane to normalize within each microscopic slide to avoid slide-dependent differences.

[4] = system: OVA-induced allergic airway inflammation; test: Goblet cells covering airway mucosa (PAS sections, stereology), OVA model, i.p. dapansutrile; type: in vivo, C57BL/6j mice; settings: treated mice, 60 mg/kg i.p.; asthmatic 22.74%; p<0.01
Experimental: as §1

SMILES: CS(=O)(=O)CCC#N [dapansutrile, 3-methanesulfonylpropionitrile]
- number of inflammatory cells in lung tissue (volume of inflammatory cell infiltrate per basal membrane area) [1]: significantly lower
- change of goblet cells covering the airway mucosa ([2]; oral, 7.5 g/kg in food, vs asthmatic mice): −29%
- goblet cells covering the airway mucosa ([2]; treated mice, oral 7.5 g/kg in food, asthmatic 15.75%): 11.16%
- number of inflammatory cells in lung tissue (volume of inflammatory cell infiltrate per basal membrane area) [3]: significantly lower
- area of epithelial basal membrane covered by goblet cells [4]: 17.67%

From patent publication US20220087969A1, “METHOD FOR TREATING ASTHMA” (Olatec Therapeutics LLC, priority 2019, published 2022)
